For assay [1], the system named is P. berghei ANKA. As to the kind of experiment: In vitro replication of P. berghei ANKA. The assay is classed as cell-based, Plasmodium berghei. The note with it: 24 h. As for the experimental part:
(§1) The data led the inventors to wonder whether Compound 1 could have a direct anti-parasitic effect on P. berghei ANKA and P. falciparum parasites. To this end, the effect of Compound 1 and the anti-malarial chloroquine (CQ) was monitored on the in vitro replication of P. falciparum 3D7 isolate and P. berghei ANKA for 48 h and 24 h, respectively.

A short description of assay [2]: Lung histology (hematoxylin and eosin) in M-AALI. The note with it: infected DBA/2 mice. The assay is classed as in vivo. As for the experimental part:
For evaluation of histological features, mice were deeply anesthetized until cessation of breathing when infected control mice presented signs of ECM or ALI. The livers, lungs, and brains were removed and fixed in 10% buffered formalin for 24-72 h. Four-micron sections were cut from paraffin-embedded tissues and stained with hematoxylin and eosin according to standard procedures. Histological analyses were performed on a Leica microscope DM 2500 (Leica Microsystems).

Another assay has as its system IFN-γ. As to the kind of experiment: IFN-γ mRNA expression in brain by qRT-PCR. The assay is classed as in vivo, C57BL/6 mice. As for the experimental part:
(§2) Mice were sacrificed, when infected control mice presented signs of ECM, and perfused intracardially with PBS to remove circulating RBC and leukocytes from the organs. RNA was isolated from brains, livers and lungs using Trizol Reagent (Invitrogen, Life technologies), according to the manufacturer's recommendation. The synthesis of the first-strand cDNA from the RNA templates was carried out using the Transcriptor First Strand cDNA Synthesis Kit (Roche). RT-PCR reactions were performed in the presence of SYBER Green (SYBER Green PCR master mix, Applied Biosystems) on an ABI PRISM 7500Fast (Applied Biosystem). Oligonucleotides used for the specific amplification of genes include:
(§3) The relative changes in gene expression between experimental and control groups were calculated by the Pfaffl method using hprt as internal control gene. Statistical Analysis
A general note: In qPCR the cycle at which signal appears reflects the starting amount.

The test system of the next assay is HO-1. In words: HO-1 mRNA expression by qRT-PCR in infected mice. It is filed as in vivo, C57BL/6 mice. The note with it: day 3 after infection. As for the experimental part:
as §2, §3

The next assay relates to P. falciparum 3D7. In words: In vitro replication of P. falciparum 3D7. The assay is classed as cell-based, Plasmodium falciparum. The note with it: 48 h. As for the experimental part: as §1
Assay [3] has as its system P. berghei ANKA. As to the kind of experiment: Parasite r18S (pRBC accumulation) in brain by qRT-PCR. The assay is classed as in vivo, C57BL/6 mice. As for the experimental part:
as §2, §3

The target in the next assay is T1, Hen Egg White Lysozyme C (Gallus gallus, UniProt P00698).
T1 construct: one corresponding to the mass of native lysozyme (14305=calculated mass); from tissue; host or cells: hen egg white
T1 sequence (P00698 19-147): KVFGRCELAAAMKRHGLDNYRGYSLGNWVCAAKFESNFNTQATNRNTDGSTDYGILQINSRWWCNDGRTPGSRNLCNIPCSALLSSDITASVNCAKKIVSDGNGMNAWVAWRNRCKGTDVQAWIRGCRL
In words: Hen egg white lysozyme (HEWL) assay, reactivity with proteins by LC-MS. It is filed as binding. The note with it: 10 equiv in H2O, room temperature, 10 minutes and 1 hour. From the text: The hen egg white lysozyme (HEWL) assay was used to assess the reactivity of Compound 1 in the presence of proteins (see, e.g., Santos-Silva, T. et al. J Am Chem Soc (2011) 133, 1192-1195). This paper describes the interactions of CORM-3 with plasma proteins. CORM-3 reacts rapidily with proteins, losing chloride ion, glycinate, and one CO ligand. […] It was observed that CORM-3 reacts faster and has a much weaker efficacy than Compound 1 in this ECM treatment.
Liquid chromatography-mass spectrometry (LC-MS) was performed on a Micromass Quattro API instrument (ESI-TOF-MS) coupled to a Waters Alliance 2795 HPLC using a MassPREP On-Line Desalting Cartridge. […]
Hen Egg White Lysozyme C (PDB code 3b61; UniProtKB/Swiss-Prot code P00698). […] Quantitative determination of lysozyme-ligand binding in the solution and gas phases by electrospray ionisation mass spectrometry follows Veros et al., Rapid Commun. […] A 50 μL aliquot was analyzed by LC-MS (calculated average isotopic mass of the egg white lysozyme=14305.1).
Santos-Silva and co-workers previously describe CORM-3's reactivity towards proteins and formation of a Ru(II) dicarbonyl-lysozyme complex (see, e.g., Santos-Silva et al., J. Am. Chem. Soc. (2011) 133:1192-1195). […] 50 μL aliquots were collected and analyzed by LC-MS over the reaction time (10 minutes and 1 hour). […]

As for `C[SH]([C@@H]1OC(CO)[C@H](O)[C@H](O)C1O)[Ru]([Cl])([Cl])([CH]=O)([CH]=O)[CH]=O` (stereo partly shown) [Compound 1, Tricarbonyldichloro(methylthiogalactopyranoside) Ru(II)], the “inhibition of in vitro growth” value with P. berghei ANKA [1] and in the assay on P. falciparum 3D7 was “does not inhibit in vitro growth” each time. The “vascular congestion with pRBCs in lung tissue” value in assay [2] is listed as “major differences in the vascular congestion with pRBCs”. Moreover, in the assay with IFN-γ, the “IFN-γ mRNA expression vs infected Compound 2-treated mice” value is “reduced”. The “HO-1 mRNA expression in brain vs non-infected and Compound 2-treated mice” value in the assay on HO-1 is given as “not significantly different”. Also, in the assay with P. berghei ANKA [3], the “pRBC accumulation in the brain vs Compound 2-treated mice” value is listed as “significantly lower”. Besides, the “reactivity with HEWL (adduct formation)” value at Hen Egg White Lysozyme C is reported as “forms protein-Ru^II(CO)2 adducts but reacts slower than CORM-3”.

These data come from patent US9611286B2, “Ruthenium carbon monoxide releasing molecules and uses thereof” (Alfama, Inc., priority 2011, dated 2017).
